Where two headings read alike, the source gives them in different places.
Experiments:
SUM-149 cells [1] = experiment: Cell viability assay (CellTiter-Glo or PI staining); assay type: cell-based, human; conditions: for EC50: Homo sapiens, read-out: EC50, SUM-149 cell viability
Description: (§5) Different concentrations of GLE-extracted bioactive chemical components were tested for 72-h treatment periods.
Either 1×10^3-4.8×10^3 or 4×10^2-1.2×10^3 cells were seeded to each well of 96- or 384-well white polystyrene flat-bottomed plates (3610 or 8804BC, Corning) in 100 μL or 30 μL media per well, respectively. The concentrations used were experimentally determined to ensure logarithmic growth during the duration of the experiment and prevent adverse effects on cell growth by DMSO exposure. The plates were incubated at 37° C. in 5% CO2 for 24 h before treatment. Stock solutions of test compounds (10 mM in DMSO) in nine 3-fold serial dilutions were dispensed via pintool (Biomek). The final concentration of DMSO was 0.3% (v/v) in each well. The plates were incubated for 72 h at 37° C. in 5% CO2 and then quenched with CellTiter-Glo® reagent (50 μL/well in 96-well plate, 30 μL/well in 384-well plate) at RT. The positive controls included staurosporine (10 μM), gambogic acid (10 μM), and a toxic quinoline generated in-house. Plates were then incubated at RT for 20 min and centrifuged at 1000 rpm for 1 min. The cytotoxicity assay was performed by using the CellTiterGlo Luminescent Cell Viability Assay kit (G7570, Promega, Madison, WI) according to the manufacturer's instructions. Luminescence was recorded in an Envision plate reader (Perkin Elmer).
(§6) For the CTG assay, 3 or 4 replicate assays were conducted for each experimental condition, and a minimum of 3 independent experiments were conducted for cellular assays. The mean luminescence of each experimental treatment group was normalized as a percentage of the mean intensity of untreated controls. EC50 values (μM) were calculated by Pipeline Pilot Software (Accelrys, Enterprise Platform, CA, USA). EC50 values (μM) from the viability assay were calculated from dose response curve-fitting via non-linear regression by using GraphPad Prism (Version 7.0 San Diego, CA).

SUM-149 cells [2] = experiment: Annexin V apoptosis detection; assay type: cell-based, human; conditions: 20 μM, 48 h
Description: (§1) Cells commonly fail to bypass the G1 phase of the cycle due to mutations or DNA damage, which can result in apoptosis. […] In addition, caspase 3/7 activity assays were performed as an alternate method of apoptosis detection.
SUM-149 cells (5×10^5) were seeded and treated either with vehicle (0.1% DMSO) or with 20 μM of EP or with puromycin (200 ng/mL) as positive control for 48 h. After treatment floating cells were collected, and all cells were harvested and counted. Treated cells were analyzed for cell death by using the FITC Annexin-V/7AAD Apoptosis detection kit (product #640922, Biolegend, San Diego, CA) according to the manufacturer's instructions. Briefly, cells were resuspended in Annexin Binding Buffer, stained with Annexin V-FITC and/or 7-AAD, and incubated for 30 min at 4° C. Data were acquired on a BD FACS Canto II cytometer (BD Biosciences, San José, Calif.) and analyzed by using FlowJo software (V10, FlowJo LLC, Ashland, OR).

SUM-149 cells [3] = experiment: Cell cycle assay; assay type: cell-based, human; conditions: EP 20 μM, 48 h
Description: SUM-149 cells were treated for 48 h with EP, then collected and washed in 1×PBS. The cells (5×10^5) were fixed and permeabilized in 70% ethanol at −20° C. until further analysis. To measure the DNA content, the cells were washed and resuspended in 150 μL of PBS buffer then incubated in 100 μL of 100 μg/mL RNase A (MilliporeSigma, Burlington, MA) for 15 min at RT, then 250 μL of 50 μg/mL Propidium Iodide (MilliporeSigma) was added. Samples were incubated at RT for 10 min and analyzed on a BD FACS Canto II flow cytometer (BD Biosciences, San José, Calif.). Data were analyzed by using FlowJo software (V10, FlowJo LLC, Ashland, OR).

MDA-MB-231 cells [4] = experiment: Reactive oxygen species (ROS) measurement, CellROX; assay type: cell-based, human; conditions: EP 20 μM, vs vehicle
MDA-MB-231 cells [5] = experiment: ApoTox-Glo Triplex assay (caspase 3/7); assay type: cell-based, human; conditions: MDA-MB-231, 24 h
Description: as §1
(§2) Cells (9.5×10^4/well in 75 μL of fresh medium) were dispensed in 96-well black flat bottom (8807BC, Corning) plates. The cells were incubated for 12 h at 37° C. and then treated with compounds (25 μL) for 24 h. DMSO was used as a negative control, and staurosporine was used as the positive control. The experiment was stopped by adding the Viability/Cytotoxicity Reagent and briefly mixed by orbital shaking (300-500 rpm for ˜30 sec). Plates were incubated for 30 min at 37° C., and fluorescence was measured in an Envision plate reader at the following two wavelength sets: 400Ex/505Em (Viability) 485Ex/520Em (Cytotoxicity). Then, the Caspase-Glo® 3/7 Reagent was added; plates were mixed briefly by orbital shaking (300-500 rpm for ˜30 sec), followed by an additional 30 min incubation at RT. Then luminescence, which correlates with caspase 3/7 activation, was recorded with a plate reader to determine apoptosis induction.

SUM-149 cells [6] = experiment: ApoTox-Glo Triplex assay (caspase 3/7); assay type: cell-based, human; conditions: SUM-149, 24 h
Description: as §1, §2

T47D = experiment: Cytotoxicity of EP probes via CTG assay; assay type: cell-based; conditions: Homo sapiens, T47D, 72 hr
Description: (§7) Both normal cell lines HMEC and BJ cells were also evaluated to determine therapeutic index.
(§8) The concentrations used were experimentally determined to ensure logarithmic growth during the duration of the experiment and prevent adverse effects on cell growth by DMSO exposure. The plates were incubated at 37° C. in 5% CO2 for 24 h before treatment. Stock solutions of test compounds (10 mM in DMSO) in nine 3-fold serial dilutions were dispensed via pintool (Biomek). The final concentration of DMSO was 0.3% (v/v) in each well. The plates were incubated for 72 h at 37° C. in 5% CO2 and then quenched with CellTiter-Glo® reagent (50 μL/well in 96-well plate, 30 μL/well in 384-well plate) at RT. The positive controls included staurosporine (10 μM), gambogic acid (10 μM), and a toxic quinoline generated in-house. Plates were then incubated at RT for 20 min and centrifuged at 1000 rpm for 1 min. The cytotoxicity assay was performed by using the CellTiterGlo Luminescent Cell Viability Assay kit (G7570, Promega, Madison, WI) according to the manufacturer's instructions. Luminescence was recorded in an Envision plate reader (Perkin Elmer).
as §6

SUM-149 = experiment: Cytotoxicity of EP probes via CTG assay; assay type: cell-based, human; conditions: Homo sapiens, SUM149, 72 hr
Description: as §7, §8, §6

SUM-149 cells [7] = experiment: Invasion assay (Transwell, Matrigel); assay type: cell-based, human; conditions: 72 h
Description: (§3) Previously, the anti-migratory activities of whole mushroom GLE in SUM-149 cells was reported. To investigate EP's effects on cell migration, Boyden chamber assays; while to investigate invasion, Transwell chambers were used. […] Furthermore, an additional decrease (43%) was seen when cells were treated with a non-lethal dose of 15 μM of EP (P<0.01) (FIG. 8B).
(§4) Cell migration and invasion were measured by using Corning® FluoroBlok™ Cell Culture Inserts and performing BD BioCoat Matrigel invasion assays (BD Biosciences, San José, Calif.) as described in [12, 14].

SUM-149 cells [8] = experiment: Reactive oxygen species (ROS) measurement, CellROX; assay type: cell-based, human
MDA-MB-231 TNBC cells = experiment: Cell viability assay (CellTiter-Glo or PI staining); assay type: cell-based; conditions: Homo sapiens, MDA-MB-231, read-out: EC50, MDA-MB-231 cell viability; FIG. 4E
Description: as §5
Either 1×10^3-4.8×10^3 or 4×10^2-1.2×10^3 cells were seeded to each well of 96- or 384-well white polystyrene flat-bottomed plates (3610 or 8804BC, Corning) in 100 μL or 30 μL media per well, respectively. The concentrations used were experimentally determined to ensure logarithmic growth during the duration of the experiment and prevent adverse effects on cell growth by DMSO exposure. The plates were incubated at 37° C. in 5% CO2 for 24 h before treatment. Stock solutions of test compounds (10 mM in DMSO) in nine 3-fold serial dilutions were dispensed via pintool (Biomek). The final concentration of DMSO was 0.3% (v/v) in each well. […] Luminescence was recorded in an Envision plate reader (Perkin Elmer).
as §6

MDA-MB-231 GFP tumors = experiment: In vivo tumor progression, MDA-MB-231-GFP mammary fat pad xenograft; conditions: 100 mg/kg BW i.p. three times per week, female SCID mice
Description: Female severe combined immunodeficient (SCID) mice (21 d of age) were purchased from Charles River Laboratories International Inc. (Wilmington, MA) and housed under specific pathogen free conditions. The mice received autoclaved AIN 76-A phytoestrogen-free diet (Tek Global, Harlan Teklad, Madison, WI) and water ad libitum. This protocol was approved by the Universidad Central del Caribe IACUC. Cell inoculations were performed as previously described by the inventors (PMID: 20517637, PMID: 23468988, PMID: 26958085, PMID: 30542507, PMID: 31658643). […] After tumor establishment the animals were randomly divided into control and experimental groups. Treatment started on week 5 post-inoculations when tumors were ˜100 mm^3. […]
The mice were imaged following tumor establishment, and once per week thereafter. Tumor progression was monitored by fluorescence image analysis taken on an UVP iBox Explorer (Analytik Jena, Upland, CA) and quantified as in PMID: 20517637. Relative tumor growth was calculated as the fluorescence intensity of each tumor on day of imaging. Quantification for tumor progression was calculated using the fluorescence intensity of each treated tumor relative to the fluorescence intensity of the same tumor on d 01 of treatment administration (week 5) using ImageJ software (National Institutes of Health, Bethesda, MD). […]

SUM-149 cells [9] = experiment: Migration assay (Boyden chamber); assay type: cell-based, human; conditions: 10 μM, 72 h
Description: as §3, §4

CC(C)[C@@H](C)/C=C/[C@@H](C)[C@H]1CC[C@@H]2[C@]1(C)CC[C@H]1[C@]23C=C[C@]2(C[C@@H](O)CC[C@]12C)OO3 [EP, ergosterol peroxide]
concentration at which SUM-149 cell viability is significantly reduced (SUM-149 cells [1]; 72 h): 8 µM
EC50 (SUM-149 cells [1]; SUM149, 24 h): 34 µM
EC50 (SUM-149 cells [1]; SUM149, 72 h): 20 µM
decrease of live cells (Annexin−, 7AAD−) (SUM-149 cells [2]): ~15%
percentage of cells in early apoptosis (Annexin+, 7AAD−) (SUM-149 cells [2]): significantly increased
increase in percentage of cells in G1 phase (SUM-149 cells [3]): ~20%
reduction of the percentage of cells in G2/M (SUM-149 cells [3]): 10%
ROS formation, fold (MDA-MB-231 cells [4]): 2 fold
caspase 3/7 activity (MDA-MB-231 cells [5]): increase caspase 3/7 activity
caspase 3/7 activity (SUM-149 cells [6]): increase caspase 3/7 activity
EC50 (T47D): 19 µM
EC50 (SUM-149): 6 µM
invading cells (SUM-149 cells [7]; 10 μM): significant reduction
decrease in invasion (SUM-149 cells [7]; 15 μM): 43%
ROS formation, fold (SUM-149 cells [8]; EP 20 μM, vs vehicle): 4 fold
reduction in ROS formation in the presence of NAC (SUM-149 cells [8]; NAC 500 μM): about 20%
EC50 (MDA-MB-231 TNBC cells): 19 µM
tumor growth rate (GFP fluorescence integrated density relative to week 5) (MDA-MB-231 GFP tumors): significantly decreases
cancer cell migration (SUM-149 cells [9]): decreases cancer cell migration

Reference: US12263177B2, “Biologically active ganoderma lucidum compounds and synthesis of anticancer derivatives; ergosterol peroxide probes for cellular localization” (priority 2019, dated 2025)
